Source: patent US7388024B2, “Indeno[2,1A]indenes and isoindolo[2,1-A]indoles” (Suven Life Sciences Limited, priority 2004, dated 2008)
pIC50, pKi: −log10 of the molar value.

Target: T1, Human 5HT6 Receptor (Homo sapiens, UniProt P50406)
T1 construct: expressed in transfected cells; host or cells: HEK293 cells
Assay: Binding Assay for Human 5HT6 Receptor
Details: [3H]LSD 1.5 nM; human recombinant receptor expressed in HEK293 cells
Experimental: Binding Assay for Human 5HT6 Receptor
Receptor source: Human recombinant expressed in HEK293 cells
Radioligand: [^3H]LSD (60-80 Ci/mmol)
Final ligand concentration—[1.5 nM]
Non-specific determinant: Methiothepin mesylate—[0.1 μM]
Reference compound: Methiothepin mesylate
Positive control: Methiothepin mesylate
Reactions are carried out in 50 mM TRIS-HCl (pH 7.4) containing 10 mM MgCl2, 0.5 mM EDTA for 60 minutes at 37° C. The reaction is terminated by rapid vacuum filtration onto glass fiber filters. Radioactivity trapped onto the filters is determined and compared to control values in order to ascertain any interactions of test compound(s) with the cloned serotonin—5HT6 binding site.
• Monsma F. J. Jr., et al., Molecular Cloning and Expression of Novel Serotonin Receptor with High Affinity for Tricyclic Psychotropic Drugs. Mol. Pharmacol. (43): 320-327 (1993).

T1 sequence (P50406 whole entry): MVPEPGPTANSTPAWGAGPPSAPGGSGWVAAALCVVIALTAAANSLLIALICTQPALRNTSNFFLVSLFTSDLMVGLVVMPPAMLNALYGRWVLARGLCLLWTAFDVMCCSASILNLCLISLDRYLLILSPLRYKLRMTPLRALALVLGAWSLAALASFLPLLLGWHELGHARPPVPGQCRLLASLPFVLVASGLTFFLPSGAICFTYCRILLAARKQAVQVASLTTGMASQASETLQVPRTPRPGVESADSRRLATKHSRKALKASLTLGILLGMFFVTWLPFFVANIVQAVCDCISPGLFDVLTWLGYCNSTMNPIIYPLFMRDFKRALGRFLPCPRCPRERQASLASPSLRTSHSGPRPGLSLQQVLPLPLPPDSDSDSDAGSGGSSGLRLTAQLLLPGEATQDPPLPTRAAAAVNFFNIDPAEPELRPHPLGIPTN

| Structure (SMILES) | pIC50 | pKi |
| --- | --- | --- |
| COc1ccc2c(c1)c(C1CCN(C)C1)c1n2S(=O)(=O)c2ccccc2-1 (stereo not shown) [drawing 20] | 6.42 | 6.76 |
| COc1ccc2c(c1)c(C1CCN(C)C1)c1n2S(=O)(=O)c2ccccc2-1 (stereo not shown) [drawing 19] | 6.69 | 7.06 |
